For assay [1], the target named is T1, Ubiquitin-conjugating enzyme E2 N (Homo sapiens, UniProt P61088).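 Further: Dose-response confirmation in a TR-FRET assay detecting UBC13-driven polyubiquitin chain formation, inhibition measured.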
T1 sequence (P61088 whole entry): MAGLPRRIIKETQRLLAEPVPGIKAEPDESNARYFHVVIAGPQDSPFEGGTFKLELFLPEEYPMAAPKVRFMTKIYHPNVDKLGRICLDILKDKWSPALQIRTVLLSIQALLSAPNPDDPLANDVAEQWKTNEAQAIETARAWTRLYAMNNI
The format is functional.

Assay [2] concerns BJ. As to the kind of experiment: cytotoxicity toward BJ-TERT-LT-ST fibroblasts, dose response, cell-based, RAS-independent, luminescence (AID 1935).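 Further: BJ fibroblasts immortalized with TERT plus LT and ST oncogenes.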 Type of assay: functional. To be noted: Homo sapiens.
The target of assay [3] is T2, Heat shock factor protein 1 (Mus musculus, UniProt P38532).
T2 sequence (P38532 whole entry): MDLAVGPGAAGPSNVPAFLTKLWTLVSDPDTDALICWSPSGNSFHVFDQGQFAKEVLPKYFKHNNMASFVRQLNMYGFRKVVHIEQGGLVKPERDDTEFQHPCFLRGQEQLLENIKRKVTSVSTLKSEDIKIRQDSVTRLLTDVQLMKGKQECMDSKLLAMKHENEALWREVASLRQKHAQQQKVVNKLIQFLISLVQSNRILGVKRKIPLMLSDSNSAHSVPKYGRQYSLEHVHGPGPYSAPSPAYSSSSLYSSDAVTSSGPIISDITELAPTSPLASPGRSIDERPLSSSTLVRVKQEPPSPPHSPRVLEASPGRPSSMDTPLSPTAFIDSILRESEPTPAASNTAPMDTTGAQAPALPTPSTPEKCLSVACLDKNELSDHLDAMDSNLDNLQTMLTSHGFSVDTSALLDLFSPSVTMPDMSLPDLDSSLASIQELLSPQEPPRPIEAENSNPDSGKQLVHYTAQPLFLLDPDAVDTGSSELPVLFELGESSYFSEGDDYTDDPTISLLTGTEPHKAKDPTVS
As to the kind of experiment: HSF1 potentiators in luciferase reporter cells, confirmation, cell-based, NIH3T3, luminescence, dose retest (AID 435004).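 Further: stress induced by proteasome inhibitor MG132 added 30 min after compound; luciferase reporter driven by HSF1 response element in NIH3T3 cells; actives raise luminescence as potentiators of the MG132 stress response.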 The format is functional.

For assay [4], the target named is T3, High affinity choline transporter 1 (Homo sapiens, UniProt Q9GZV3).
T3 sequence (Q9GZV3 whole entry): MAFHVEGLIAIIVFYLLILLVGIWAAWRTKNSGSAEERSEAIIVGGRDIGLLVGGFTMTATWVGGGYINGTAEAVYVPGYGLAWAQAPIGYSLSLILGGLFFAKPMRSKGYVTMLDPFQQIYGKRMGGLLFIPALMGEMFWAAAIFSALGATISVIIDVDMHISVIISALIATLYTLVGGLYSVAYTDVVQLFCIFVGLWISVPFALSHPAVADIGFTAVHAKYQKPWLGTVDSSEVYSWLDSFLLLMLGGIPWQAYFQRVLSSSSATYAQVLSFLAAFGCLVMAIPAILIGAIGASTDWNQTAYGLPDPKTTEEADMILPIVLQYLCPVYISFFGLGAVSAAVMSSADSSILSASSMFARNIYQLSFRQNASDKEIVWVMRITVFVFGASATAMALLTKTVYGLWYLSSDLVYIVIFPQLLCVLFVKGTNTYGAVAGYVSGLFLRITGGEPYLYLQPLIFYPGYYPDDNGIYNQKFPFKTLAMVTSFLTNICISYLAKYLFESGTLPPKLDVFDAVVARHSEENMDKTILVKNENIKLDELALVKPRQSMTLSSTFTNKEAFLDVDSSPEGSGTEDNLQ
Nature of the assay: CHT inhibitors, dose response, cell-based, 5-point CRC, membrane potential dye (AID 504840). The format is functional.

In assay [5] the test system is BJ. As to the kind of experiment: cells. The format is functional, cell-based. To be noted: Homo sapiens.
Assay [6] is described as follows: cytotoxicity toward DRD oncogenic fibroblasts, dose response, cell-based, non-viral oncogenic, luminescence (AID 1934). To be noted: Homo sapiens. The format is functional.
Assay [7] concerns BJ. As to the kind of experiment: cytotoxicity toward BJ-TERT fibroblasts, dose response, cell-based, RAS-independent, luminescence (AID 1933). Conditions: Homo sapiens. The format is functional.
Assay [8] deals with Glyceraldehyde-3-phosphate dehydrogenase (Homo sapiens, UniProt P04406).
A further assay relates to INS1. As to the kind of experiment: beta cell apoptosis inhibitors, cytokine rescue, dose response, luminescence, retest (AID 449756).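 Further: cell death triggered by IL-1 beta plus TNF-alpha plus IFN-gamma mixture; protective hits raise ATP signal compared with cytokine alone wells.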 The format is functional, cell-based. To be noted: Rattus norvegicus.
A short description of assay [9]: cytotoxicity in HEK-293T cells, dose response, cytotoxicity control for BCR NF-kB inhibitor project, luminescence, B-cell screen hits (AID 489021).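 Further: HEK-293T cells carrying an NF-kB luciferase reporter; cells exposed to compound for about 14 hours before viability readout.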 The format is functional, cell-based.
A further assay concerns H9c2. As to the kind of experiment: cells. Type of assay: functional, cell-based. To be noted: Rattus norvegicus, H9c2, Myocardium.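 Further: confirmatory concentration-response retest of ultra-high-throughput screening hits for modulation of myocardial damage; cell death induced by hydrogen peroxide oxidative stress; compound pretreatment for 60 min then peroxide exposure for 2 h; potency is for protecting the cells against peroxide damage rather than for killing them.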
The target in assay [10] is T4, Short transient receptor potential channel 4 (Mus musculus, UniProt Q9QUQ5).
T4 sequence (Q9QUQ5 whole entry): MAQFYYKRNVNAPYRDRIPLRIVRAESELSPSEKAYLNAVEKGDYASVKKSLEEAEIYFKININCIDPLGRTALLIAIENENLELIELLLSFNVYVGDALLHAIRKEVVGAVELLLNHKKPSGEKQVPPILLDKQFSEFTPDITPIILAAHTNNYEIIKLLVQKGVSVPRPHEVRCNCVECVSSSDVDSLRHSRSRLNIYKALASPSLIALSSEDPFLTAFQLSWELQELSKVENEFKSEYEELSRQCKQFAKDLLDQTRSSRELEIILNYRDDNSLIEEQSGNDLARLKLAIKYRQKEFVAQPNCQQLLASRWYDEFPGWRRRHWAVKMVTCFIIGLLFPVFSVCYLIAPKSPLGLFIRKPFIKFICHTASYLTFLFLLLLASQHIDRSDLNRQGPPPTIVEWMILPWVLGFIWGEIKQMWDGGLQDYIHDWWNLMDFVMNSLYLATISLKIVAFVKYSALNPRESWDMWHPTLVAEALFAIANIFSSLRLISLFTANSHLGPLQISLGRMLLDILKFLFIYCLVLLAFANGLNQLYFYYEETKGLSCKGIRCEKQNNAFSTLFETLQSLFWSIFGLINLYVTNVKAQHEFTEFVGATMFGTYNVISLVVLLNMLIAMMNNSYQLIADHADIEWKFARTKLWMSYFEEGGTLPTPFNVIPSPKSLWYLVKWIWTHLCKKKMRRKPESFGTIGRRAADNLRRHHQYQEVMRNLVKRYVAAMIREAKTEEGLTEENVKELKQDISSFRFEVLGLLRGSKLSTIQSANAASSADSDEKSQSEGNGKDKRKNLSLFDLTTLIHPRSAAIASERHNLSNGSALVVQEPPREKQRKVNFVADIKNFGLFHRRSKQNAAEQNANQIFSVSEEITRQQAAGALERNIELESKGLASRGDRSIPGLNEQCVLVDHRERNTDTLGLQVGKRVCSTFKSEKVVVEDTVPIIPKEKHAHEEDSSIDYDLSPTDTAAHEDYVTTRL
As to the kind of experiment: mouse TRPC4 channel activators, dose response, cell-based, HEK293 TRPC4/mu-opioid, Fluo-4 calcium (AID 434937). The format is functional.

Assay [11] is described as follows: Luminescence Cell-Based Dose Response HTS to Identify Inhibitors of 5'UTR Stem-Loop Driven Prion Protein mRNA Translation in H4 Neuroglioblastoma Cells. [Related pubchem assays: 1827 (Project Summary), 1813 (Primary HTS)]. The format is functional.
Assay [12] is described as follows: inhibitors of firefly luciferase expression or activity, dose response, H4 neuroglioma cells, luminescence (AID 1990). Type of assay: functional, cell-based.
Assay [13] can be described thus: inhibitors of SNCA 5'UTR-driven reporter translation, confirmation, H4 neuroglioma cells, luminescence (AID 1988). Type of assay: functional, cell-based.

The text below walks through data of ChEMBL document CHEMBL1201862, “PubChem BioAssay data set” (2004).

One may read the IC50 as the concentration needed to halve the response being measured. What is called EC50 is the midpoint of the concentration-response curve. Usually AC50 stands for the concentration giving half of the maximal activity seen.

Activity calls are given as the source filed them.

Sequence of Glyceraldehyde-3-phosphate dehydrogenase (P04406 whole entry): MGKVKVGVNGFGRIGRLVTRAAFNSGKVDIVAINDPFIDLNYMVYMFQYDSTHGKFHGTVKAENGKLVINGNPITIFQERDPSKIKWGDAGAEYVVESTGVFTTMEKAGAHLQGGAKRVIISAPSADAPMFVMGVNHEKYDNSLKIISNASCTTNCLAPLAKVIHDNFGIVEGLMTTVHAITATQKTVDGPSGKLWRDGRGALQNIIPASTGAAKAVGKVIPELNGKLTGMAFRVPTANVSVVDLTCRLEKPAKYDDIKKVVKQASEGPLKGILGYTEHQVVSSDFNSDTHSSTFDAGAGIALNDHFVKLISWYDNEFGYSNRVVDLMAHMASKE

On to `O=C(NCC1CCN(Cc2ccc(F)cc2)CC1)C1CCCN(c2ncnc3c2nc2n3CCCCC2)C1` (stereo not given), for which, in [1], the IC50 is > 20 µM (inactive).
Turning to `CC(C)Nc1nc(Cl)nc(N(C#N)CN2C(=O)c3ccccc3C2=O)n1`, the EC50 is > 150 µM (inconclusive) in the assay on BJ [2]; 27.9 µM (active) in assay [3]; 16.2 µM (active) in the assay with BJ [5]; 17.9 µM (active) in [6]; 10.1 µM (active) with BJ [7]. Besides, the IC50 in assay [4] was 1.58 µM (active).
With `Cc1cccc(N2C(=O)C(Cl)=C(N3CCN(c4ncccn4)CC3)C2=O)c1`, the IC50 in [8] was > 50 µM (inconclusive).
For `N=c1c2c(n(Cc3ccc(Cl)cc3Cl)c3c1CCC3)CCCC2`, the AC50 in the assay on INS1 was 3.58 µM (active). Moreover, the IC50 in assay [9] is > 80 µM (inactive).
For the molecule `Cc1nn(C(C)(C)C)c(OC(=O)c2ccc(Br)o2)c1Sc1ccccc1`, the IC50 in [9] is > 80 µM (inactive).
On to `COc1ccc(NC(=O)c2cc(-c3ccccn3)nc3ccccc23)cc1S(=O)(=O)N(C)C`, for which the values for the IC50 (in the assay with H9c2; in [9]) were > 79 µM (inactive) and > 80 µM (inactive), respectively.
As for `COc1ccc(/C=N\NC(=O)c2c(C)nc3ccc(Br)cn23)cc1`, the 50% inhibitory concentration (IC50) in the assay on H9c2 was 12.1 µM (active). Moreover, the concentration for a half-maximal effect (EC50) was 2.67 µM (inconclusive) in the assay with BJ [2], 2.71 µM (active) in the assay on BJ [5], 2.9 µM (inconclusive) in [6] and 3.13 µM (active) in the assay on BJ [7].
Regarding `CN(C)CCCN(C(=O)c1ccc(S(=O)(=O)N2CCCc3ccccc32)cc1)c1nc2ccc(F)cc2s1`, the 50% effective concentration (EC50) in assay [10] was 2.37 µM (active); in assay [11] it was > 120 µM (not active); in [12], 12.6 µM (active); in [13], > 120 µM (not active).
On to `O=C(CCCN1C(=O)/C(=C/c2ccccc2Cl)SC1=S)NNC(=O)c1ccncc1`, for which the IC50 in assay [9] is > 80 µM (inactive).
Regarding `Cc1csc2c(N3CCN(C(S)=Nc4ccc(F)cc4F)CC3)ncnc12`, in assay [10], the half-maximal effective concentration (EC50) is 1.88 µM (active).
Turning to `C[C@@H]1CN(C2=C(Cl)C(=O)N(c3cccc(C(F)(F)F)c3)C2=O)CCN1`, the 50% inhibitory concentration (IC50) in assay [8] is > 50 µM (inconclusive).
